pIC50: −log10 of the molar value.
Legend:
[1] = Inhibition of HA-tagged MEK7 R283Y/K288V/R292M mutant (unknown origin) expressed in HEK-293T cells after 20 mins in presence of [32P]-ATP; assay type: cell-based, Homo sapiens
[2] = Inhibition of flag-tagged MEK4 Q253Y/I258V/R262M mutant (unknown origin) expressed in HEK-293T cells after 20 mins in presence of [32P]-ATP; assay type: cell-based, Homo sapiens
[3] = species: Homo sapiens; experiment: Selectivity ratio of IC50 for CDC25A (unknown origin) to IC50 for MEK7 (unknown origin)
[4] = species: Homo sapiens; experiment: Selectivity ratio of IC50 for CDC25B (unknown origin) to IC50 for MEK7 (unknown origin)
[5] = target: T1, Dual specificity mitogen-activated protein kinase kinase 7 (Homo sapiens, UniProt O14733); experiment: Inhibition of MEK7 (unknown origin)
T1 sequence (O14733 whole entry): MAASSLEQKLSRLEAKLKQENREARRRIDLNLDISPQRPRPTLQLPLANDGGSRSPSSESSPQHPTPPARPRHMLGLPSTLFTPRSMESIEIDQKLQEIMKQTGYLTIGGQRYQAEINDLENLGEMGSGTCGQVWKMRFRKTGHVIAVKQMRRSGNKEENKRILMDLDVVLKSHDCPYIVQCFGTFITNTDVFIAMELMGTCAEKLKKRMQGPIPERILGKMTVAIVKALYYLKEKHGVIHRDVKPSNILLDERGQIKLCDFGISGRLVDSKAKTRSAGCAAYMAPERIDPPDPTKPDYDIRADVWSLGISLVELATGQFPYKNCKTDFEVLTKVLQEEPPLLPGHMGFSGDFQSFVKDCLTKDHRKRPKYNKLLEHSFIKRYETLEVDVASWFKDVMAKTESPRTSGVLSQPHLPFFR

[6] = target: Leucine-rich repeat serine/threonine-protein kinase 2 (Homo sapiens) (UniProt Q5S007); experiment: Inhibition of wild type full length recombinant human LRRK2 (H970 to E2527 residues) at 1 uM relative to control
Sequence of Leucine-rich repeat serine/threonine-protein kinase 2 (Homo sapiens) (Q5S007 whole entry, the tested form may be a part): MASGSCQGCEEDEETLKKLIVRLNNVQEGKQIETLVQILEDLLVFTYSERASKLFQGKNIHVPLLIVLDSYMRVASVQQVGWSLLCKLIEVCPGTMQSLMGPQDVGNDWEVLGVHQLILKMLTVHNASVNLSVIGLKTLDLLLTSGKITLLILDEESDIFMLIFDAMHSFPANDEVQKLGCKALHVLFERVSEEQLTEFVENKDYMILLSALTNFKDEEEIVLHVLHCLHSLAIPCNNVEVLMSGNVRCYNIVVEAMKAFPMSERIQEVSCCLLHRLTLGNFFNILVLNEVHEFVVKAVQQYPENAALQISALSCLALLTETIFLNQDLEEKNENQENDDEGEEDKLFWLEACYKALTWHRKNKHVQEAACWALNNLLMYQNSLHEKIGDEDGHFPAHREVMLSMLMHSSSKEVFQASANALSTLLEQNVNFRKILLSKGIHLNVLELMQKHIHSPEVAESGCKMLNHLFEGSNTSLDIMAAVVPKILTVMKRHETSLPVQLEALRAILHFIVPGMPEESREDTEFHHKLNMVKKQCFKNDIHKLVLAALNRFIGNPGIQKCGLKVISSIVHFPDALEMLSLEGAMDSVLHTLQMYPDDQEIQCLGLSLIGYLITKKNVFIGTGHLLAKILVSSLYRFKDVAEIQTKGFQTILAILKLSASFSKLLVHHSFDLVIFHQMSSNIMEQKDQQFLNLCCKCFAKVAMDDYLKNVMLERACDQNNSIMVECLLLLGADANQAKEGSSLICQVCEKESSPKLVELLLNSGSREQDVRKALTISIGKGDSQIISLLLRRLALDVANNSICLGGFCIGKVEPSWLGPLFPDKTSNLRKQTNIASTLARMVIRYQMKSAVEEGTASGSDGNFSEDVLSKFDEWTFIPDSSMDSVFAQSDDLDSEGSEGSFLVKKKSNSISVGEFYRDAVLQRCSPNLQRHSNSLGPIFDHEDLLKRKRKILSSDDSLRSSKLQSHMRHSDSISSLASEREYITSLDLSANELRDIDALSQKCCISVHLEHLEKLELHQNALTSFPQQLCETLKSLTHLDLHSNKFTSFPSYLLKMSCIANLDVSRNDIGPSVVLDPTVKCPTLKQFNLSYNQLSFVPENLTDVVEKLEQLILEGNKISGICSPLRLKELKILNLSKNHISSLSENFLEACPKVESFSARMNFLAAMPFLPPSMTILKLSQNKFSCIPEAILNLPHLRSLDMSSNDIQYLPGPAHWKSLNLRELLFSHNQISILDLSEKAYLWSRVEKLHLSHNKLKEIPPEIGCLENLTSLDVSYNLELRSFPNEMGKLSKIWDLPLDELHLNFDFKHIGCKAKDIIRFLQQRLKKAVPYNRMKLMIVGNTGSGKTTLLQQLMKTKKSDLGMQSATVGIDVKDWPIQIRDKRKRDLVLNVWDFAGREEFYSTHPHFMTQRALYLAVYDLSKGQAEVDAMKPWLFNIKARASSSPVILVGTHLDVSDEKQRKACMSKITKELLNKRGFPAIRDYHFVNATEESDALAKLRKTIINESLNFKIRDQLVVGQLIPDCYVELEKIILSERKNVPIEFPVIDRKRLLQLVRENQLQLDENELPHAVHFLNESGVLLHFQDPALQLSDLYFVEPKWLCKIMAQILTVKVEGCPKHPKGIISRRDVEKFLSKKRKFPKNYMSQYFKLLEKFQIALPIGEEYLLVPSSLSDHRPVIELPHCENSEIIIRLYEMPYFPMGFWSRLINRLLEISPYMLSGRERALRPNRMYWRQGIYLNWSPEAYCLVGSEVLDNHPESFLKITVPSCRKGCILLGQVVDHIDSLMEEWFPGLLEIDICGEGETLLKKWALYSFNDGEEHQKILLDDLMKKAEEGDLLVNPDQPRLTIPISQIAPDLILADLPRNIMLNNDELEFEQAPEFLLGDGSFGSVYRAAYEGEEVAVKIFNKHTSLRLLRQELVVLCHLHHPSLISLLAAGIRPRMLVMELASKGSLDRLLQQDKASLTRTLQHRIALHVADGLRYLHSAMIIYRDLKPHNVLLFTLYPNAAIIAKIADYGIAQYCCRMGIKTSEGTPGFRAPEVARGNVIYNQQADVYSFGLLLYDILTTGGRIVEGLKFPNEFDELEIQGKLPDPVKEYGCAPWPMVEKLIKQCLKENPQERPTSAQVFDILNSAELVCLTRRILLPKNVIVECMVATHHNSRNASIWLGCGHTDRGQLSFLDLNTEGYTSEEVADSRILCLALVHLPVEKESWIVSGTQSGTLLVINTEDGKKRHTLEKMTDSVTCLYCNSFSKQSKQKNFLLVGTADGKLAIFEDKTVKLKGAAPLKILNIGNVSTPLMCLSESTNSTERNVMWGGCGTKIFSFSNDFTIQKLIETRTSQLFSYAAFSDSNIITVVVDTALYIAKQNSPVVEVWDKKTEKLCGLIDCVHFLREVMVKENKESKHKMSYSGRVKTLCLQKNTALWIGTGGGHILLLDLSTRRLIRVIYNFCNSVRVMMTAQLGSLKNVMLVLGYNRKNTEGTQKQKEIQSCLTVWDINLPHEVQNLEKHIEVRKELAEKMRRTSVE

[7] = target: T2, Dual specificity mitogen-activated protein kinase kinase 4 (Homo sapiens) (UniProt P45985); experiment: Inhibition of wild type recombinant human MEK4 (S84 to D399 residues) at 1 uM relative to control
T2 sequence (whole entry): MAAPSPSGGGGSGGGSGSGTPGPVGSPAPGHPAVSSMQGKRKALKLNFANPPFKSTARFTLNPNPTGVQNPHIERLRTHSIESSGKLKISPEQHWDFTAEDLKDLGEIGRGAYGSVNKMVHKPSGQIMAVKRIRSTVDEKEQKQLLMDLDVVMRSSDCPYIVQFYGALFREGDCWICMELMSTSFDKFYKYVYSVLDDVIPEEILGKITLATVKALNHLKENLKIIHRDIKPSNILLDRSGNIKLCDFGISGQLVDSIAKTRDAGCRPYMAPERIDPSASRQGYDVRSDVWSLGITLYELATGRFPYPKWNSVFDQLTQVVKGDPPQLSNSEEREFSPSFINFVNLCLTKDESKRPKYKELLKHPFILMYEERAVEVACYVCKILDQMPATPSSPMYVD

[8] = target: Aurora kinase B (Homo sapiens) (UniProt Q96GD4); experiment: Inhibition of N- terminal GST-tagged/His6-tagged human recombinant full length Aurora kinase B ([…]) expressed in baculovirus sf21 cells at 1 uM relative to control
Sequence of Aurora kinase B (Homo sapiens) (Q96GD4 whole entry): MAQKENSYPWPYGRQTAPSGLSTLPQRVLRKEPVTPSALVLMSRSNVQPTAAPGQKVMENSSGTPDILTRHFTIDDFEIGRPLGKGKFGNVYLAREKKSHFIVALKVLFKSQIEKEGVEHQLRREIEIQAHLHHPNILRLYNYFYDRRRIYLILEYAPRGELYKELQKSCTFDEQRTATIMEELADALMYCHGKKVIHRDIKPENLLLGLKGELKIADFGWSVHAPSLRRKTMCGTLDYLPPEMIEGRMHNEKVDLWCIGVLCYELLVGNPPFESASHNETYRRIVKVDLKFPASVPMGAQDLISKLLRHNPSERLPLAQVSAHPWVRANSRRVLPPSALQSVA

[9] = target: T3, Tyrosine-protein kinase JAK3 (Homo sapiens) (UniProt P52333); experiment: Inhibition of recombinant human N-terminal His6-tagged JAK3 (781 to end residues) expressed in baculovirus infected Sf21 cells at 1 uM relative to control
T3 sequence (whole entry): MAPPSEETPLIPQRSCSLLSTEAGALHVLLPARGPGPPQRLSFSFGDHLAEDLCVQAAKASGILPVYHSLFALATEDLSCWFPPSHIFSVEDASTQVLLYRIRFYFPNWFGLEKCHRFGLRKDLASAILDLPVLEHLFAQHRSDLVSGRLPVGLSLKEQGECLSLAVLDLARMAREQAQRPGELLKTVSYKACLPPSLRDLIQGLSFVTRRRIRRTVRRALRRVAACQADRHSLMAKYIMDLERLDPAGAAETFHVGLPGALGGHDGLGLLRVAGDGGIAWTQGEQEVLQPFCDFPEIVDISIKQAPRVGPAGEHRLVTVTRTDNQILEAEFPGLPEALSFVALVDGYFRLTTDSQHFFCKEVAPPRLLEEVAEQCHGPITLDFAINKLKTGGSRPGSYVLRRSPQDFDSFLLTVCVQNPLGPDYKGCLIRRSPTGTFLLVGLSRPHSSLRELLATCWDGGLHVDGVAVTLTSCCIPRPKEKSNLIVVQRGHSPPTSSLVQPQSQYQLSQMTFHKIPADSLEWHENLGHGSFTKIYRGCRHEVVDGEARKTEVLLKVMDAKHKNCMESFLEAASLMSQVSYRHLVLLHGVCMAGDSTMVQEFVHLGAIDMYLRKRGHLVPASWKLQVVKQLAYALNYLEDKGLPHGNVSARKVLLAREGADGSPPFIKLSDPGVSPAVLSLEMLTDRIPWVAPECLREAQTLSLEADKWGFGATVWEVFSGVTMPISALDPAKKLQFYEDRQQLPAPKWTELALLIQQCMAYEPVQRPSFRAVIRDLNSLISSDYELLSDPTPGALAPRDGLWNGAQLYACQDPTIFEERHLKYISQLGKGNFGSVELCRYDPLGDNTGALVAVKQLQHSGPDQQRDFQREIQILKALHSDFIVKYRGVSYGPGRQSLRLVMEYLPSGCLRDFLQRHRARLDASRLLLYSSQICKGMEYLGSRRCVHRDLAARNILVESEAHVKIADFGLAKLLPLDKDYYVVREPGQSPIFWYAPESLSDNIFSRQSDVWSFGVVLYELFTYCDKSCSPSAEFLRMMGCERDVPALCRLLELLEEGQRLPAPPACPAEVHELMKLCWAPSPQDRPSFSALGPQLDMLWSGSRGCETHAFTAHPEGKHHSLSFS

[10] = species: Homo sapiens; experiment: Selectivity ratio of IC50 for ERK5 (unknown origin) to IC50 for MEK5 (unknown origin)
[11] = species: Homo sapiens; experiment: Selectivity ratio of IC50 for TGFbetaR1 (unknown origin) to IC50 for MEK5 (unknown origin)
[12] = target: T4, Dual specificity mitogen-activated protein kinase kinase 6 (Homo sapiens, UniProt P52564); experiment: Inhibition of MEK6 (unknown origin)
T4 sequence (P52564 whole entry): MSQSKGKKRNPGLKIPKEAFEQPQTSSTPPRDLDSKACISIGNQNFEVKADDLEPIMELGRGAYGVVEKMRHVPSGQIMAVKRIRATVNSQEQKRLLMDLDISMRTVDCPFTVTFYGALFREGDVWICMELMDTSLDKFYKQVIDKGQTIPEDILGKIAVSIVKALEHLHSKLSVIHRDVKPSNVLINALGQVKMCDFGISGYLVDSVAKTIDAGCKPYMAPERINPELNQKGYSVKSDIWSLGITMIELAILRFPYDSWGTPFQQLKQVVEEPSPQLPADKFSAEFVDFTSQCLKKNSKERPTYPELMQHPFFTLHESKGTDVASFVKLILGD

[13] = species: Homo sapiens; experiment: Selectivity ratio of IC50 for MEK3 (unknown origin) to IC50 for MEK6 (unknown origin)
[14] = species: Homo sapiens; experiment: Selectivity ratio of IC50 for MEK4 (unknown origin) to IC50 for MEK6 (unknown origin)
[15] = species: Homo sapiens; experiment: Selectivity ratio of IC50 for MEK2 (unknown origin) to IC50 for MEK6 (unknown origin)
[16] = species: Homo sapiens; experiment: Selectivity ratio of IC50 for MEK1 (unknown origin) to IC50 for MEK6 (unknown origin)

Compound: COc1ccc2c(Cc3ccc(O[Si](C)(C)C(C)(C)C)cc3)c3[n+](cc2c1OC)CCc1ccccc1-3
- pIC50 [1]: 5.00
- pIC50 [2]: 5.22

Compound: O=C(O)c1cccc(NC2=CC(=O)c3ccccc3C2=O)c1
- Ratio IC50 [3]: 17
- Ratio IC50 [4]: 12
- pIC50 [5]: 5.72

Compound: C=CC(=O)Nc1cccc(-c2n[nH]c3cc(C)ccc23)c1
- inhibition [6]: > 75%
- inhibition [7]: > 75%
- inhibition [8]: > 75%

Compound: O=C(O)CCSC1=CC(=O)c2ccccc2C1=O
- pIC50 [5]: 6.64

Compound: C=CC(=O)Nc1cccc(-c2n[nH]c3ccccc23)c1
- inhibition [6]: > 75%
- inhibition [9]: > 75%
- inhibition [7]: > 75%
- inhibition [8]: > 75%

Compound: CN(C)Cc1cccc(N/C(=C2\C(=O)Nc3cc(C(N)=O)ccc32)c2ccccc2)c1
- Ratio IC50 [10]: 60
- Ratio IC50 [11]: 580

Compound: C=C(CC)C(=O)c1ccc(OCC(=O)O)c(Cl)c1Cl [ETHACRYNIC ACID]
- pIC50 [12]: 5.35
- Ratio IC50 [13]: 3
- Ratio IC50 [14]: 3
- Ratio IC50 [15]: 9
- Ratio IC50 [16]: 12

Reference: ChEMBL document CHEMBL4725240, “Non-'classical' MEKs: A review of MEK3-7 inhibitors” (Bioorg Med Chem Lett, 2020)
